The test system of the assay is Staphylococcus aureus USA 300 (LAC). Description: MIC assay. It counts as cell-based.

Procedure: MIC determinations and killing assays were performed in Mueller Hinton Broth (MHB; Roth, Karlsruhe, Germany).
S. aureus RN4220, S. aureus USA300 (LAC), S. aureus USA300 (NRS384), S. aureus SA113, S. aureus Mu50, E. coli DH5α and P. aeruginosa PAO1 were grown overnight in MHB. […] All strains were incubated at 37° C. under continuous shaking. Early log-phase grown bacteria were adjusted in MHB to 1×10^6 cells/well in microtiter plates (MTP), mixed with varying concentrations of the antibiotic and incubated at 37° C. for 24 h under continuous shaking. […] The assays were performed in 96-well microtiter plates.
MIC assays for the antibiotics used in this study were performed as described above. […] Fresh MHB was inoculated 1:10,000 with an overnight culture of S. aureus USA300 LAC and was incubated at 37° C. under continuous shaking. Cells were grown to early log phase, adjusted to 1×10^6 cells/mL, and dispensed into 96-well MTPs with 100 μL per well. […] After 24 h incubation at 37° C. under continuous shaking, growth was determined with a microplate reader at an OD600 and cells from the second highest concentration of 0.25×MIC, 0.5×MIC, 1×MIC, 1.5×MIC, 2×MIC and 4×MIC from the appropriate antibiotic.

With `CO[C@H]1/C=C/O[C@@]2(C)Oc3c(C)c(O)c4c(O)c(c(/C=N/N5CCN(C)CC5)c(O)c4c3C2=O)NC(=O)/C(C)=C\C=C\[C@H](C)[C@H](O)[C@@H](C)[C@@H](O)[C@@H](C)[C@H](OC(C)=O)[C@@H]1C` [rifampicin], the “1×MIC against S. aureus USA300” value amounted to 0.01 µg/mL.

Values taken from patent US10774113B2, “Anti-infective compound” (priority 2015, dated 2020).
